Experimental data published in ChEMBL document CHEMBL1909046, “DrugMatrix in vitro pharmacology data”.
pIC50, pKi: −log10 of the molar value.

Assays:
[1] = DRUGMATRIX: Phosphodiesterase PDE4 enzyme inhibition (substrate: [3H]cAMP + cAMP); details: u-937; Not Active = under 50% inhibition at 10 µM
[2] = molecular target: T1, Amine oxidase [flavin-containing] A (Homo sapiens, UniProt P21397); assay: DRUGMATRIX: Monoamine Oxidase MAO-A enzyme inhibition (substrate: Kynuramine); design: species or system BTI-TN-5B1-4; details: bti-tn-5b1-4; Not Active = under 50% inhibition at 10 µM
T1 sequence (P21397 whole entry): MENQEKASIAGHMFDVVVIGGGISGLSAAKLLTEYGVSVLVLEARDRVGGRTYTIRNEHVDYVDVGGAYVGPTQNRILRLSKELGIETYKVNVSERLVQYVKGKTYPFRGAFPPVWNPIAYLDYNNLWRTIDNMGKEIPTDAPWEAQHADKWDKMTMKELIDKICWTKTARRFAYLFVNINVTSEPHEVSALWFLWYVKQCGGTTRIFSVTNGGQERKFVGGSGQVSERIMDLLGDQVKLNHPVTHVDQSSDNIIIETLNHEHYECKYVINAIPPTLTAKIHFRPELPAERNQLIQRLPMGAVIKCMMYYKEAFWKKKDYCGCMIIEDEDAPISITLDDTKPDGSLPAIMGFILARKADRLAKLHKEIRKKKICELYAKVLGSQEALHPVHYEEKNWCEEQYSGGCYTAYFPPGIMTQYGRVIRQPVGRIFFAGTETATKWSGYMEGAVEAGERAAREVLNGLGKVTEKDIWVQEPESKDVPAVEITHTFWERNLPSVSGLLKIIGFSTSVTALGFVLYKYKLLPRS

[3] = DRUGMATRIX: Calcium Channel Type L, Dihydropyridine radioligand binding (ligand: [3H] Nitrendipine); type: cell membranes, Rattus norvegicus, Wistar, Cerebral cortex, Membrane; details: Not Active = under 50% inhibition at 10 µM
[4] = molecular target: Cytochrome P450 2E1 (Homo sapiens, UniProt P05181); details: bti-tn-5b1-4; note: in other assays of this panel Not Active means under 50% inhibition at 10 µM
Sequence of Cytochrome P450 2E1 (P05181 whole entry): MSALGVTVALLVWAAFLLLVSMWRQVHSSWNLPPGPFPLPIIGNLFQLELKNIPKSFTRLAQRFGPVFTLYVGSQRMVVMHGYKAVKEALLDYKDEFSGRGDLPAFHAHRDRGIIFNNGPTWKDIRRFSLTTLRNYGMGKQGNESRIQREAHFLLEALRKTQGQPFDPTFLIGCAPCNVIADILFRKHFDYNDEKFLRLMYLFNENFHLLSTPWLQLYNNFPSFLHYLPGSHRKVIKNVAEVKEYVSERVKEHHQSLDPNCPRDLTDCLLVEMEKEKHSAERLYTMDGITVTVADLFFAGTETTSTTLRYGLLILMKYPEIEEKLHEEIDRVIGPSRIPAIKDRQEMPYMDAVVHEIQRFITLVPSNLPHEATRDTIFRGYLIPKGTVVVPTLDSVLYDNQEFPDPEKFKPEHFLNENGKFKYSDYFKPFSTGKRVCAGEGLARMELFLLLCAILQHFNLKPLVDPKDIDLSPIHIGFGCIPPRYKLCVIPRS

[5] = molecular target: T2, Substance-K receptor (Homo sapiens, UniProt P21452); type: cell membranes, CHO, Membrane; details: for IC50 / Ki: cho; for all read-outs here: in other assays of this panel Not Active means under 50% inhibition at 10 µM
T2 sequence (P21452 whole entry): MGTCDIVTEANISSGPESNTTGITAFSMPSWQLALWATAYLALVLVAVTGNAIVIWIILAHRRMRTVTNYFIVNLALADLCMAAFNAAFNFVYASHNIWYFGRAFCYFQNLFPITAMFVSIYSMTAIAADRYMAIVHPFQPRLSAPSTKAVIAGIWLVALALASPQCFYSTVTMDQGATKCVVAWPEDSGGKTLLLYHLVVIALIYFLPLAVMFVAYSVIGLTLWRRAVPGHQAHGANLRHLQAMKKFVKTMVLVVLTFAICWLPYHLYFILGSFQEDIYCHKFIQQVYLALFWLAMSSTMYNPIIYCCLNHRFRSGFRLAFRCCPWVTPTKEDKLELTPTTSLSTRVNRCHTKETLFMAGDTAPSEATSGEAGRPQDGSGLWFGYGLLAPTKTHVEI

[6] = molecular target: Cannabinoid receptor 1 (Homo sapiens, UniProt P21554); type: cell membranes, Chem-1, Membrane; details: chem-1; note: in other assays of this panel Not Active means under 50% inhibition at 10 µM
Sequence of Cannabinoid receptor 1 (P21554 whole entry): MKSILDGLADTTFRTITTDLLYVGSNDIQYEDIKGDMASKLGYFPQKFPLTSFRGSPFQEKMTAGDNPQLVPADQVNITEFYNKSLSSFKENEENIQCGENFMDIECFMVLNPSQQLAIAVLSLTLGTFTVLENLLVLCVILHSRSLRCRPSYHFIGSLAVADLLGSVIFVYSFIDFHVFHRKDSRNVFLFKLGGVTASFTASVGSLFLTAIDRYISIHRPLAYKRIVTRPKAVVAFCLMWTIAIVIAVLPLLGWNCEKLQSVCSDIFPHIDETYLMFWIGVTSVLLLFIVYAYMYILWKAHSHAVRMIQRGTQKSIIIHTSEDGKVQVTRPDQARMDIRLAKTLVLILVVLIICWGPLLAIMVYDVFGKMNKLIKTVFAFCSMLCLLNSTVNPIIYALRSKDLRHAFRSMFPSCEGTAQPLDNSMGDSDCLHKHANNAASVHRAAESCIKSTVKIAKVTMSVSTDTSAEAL

CC[C@H](C)[C@H]1O[C@]2(C=C[C@@H]1C)C[C@@H]1C[C@@H](C/C=C(\C)[C@@H](O[C@H]3C[C@H](OC)[C@@H](O[C@H]4C[C@H](OC)[C@@H](O)[C@H](C)O4)[C@H](C)O3)[C@@H](C)/C=C/C=C3\CO[C@@H]4[C@H](O)C(C)=C[C@@H](C(=O)O1)[C@]34O)O2.CO[C@H]1C[C@H](O[C@H]2[C@H](C)O[C@@H](O[C@@H]3/C(C)=C/C[C@@H]4C[C@@H](C[C@]5(C=C[C@H](C)[C@@H](C(C)C)O5)O4)OC(=O)[C@@H]4C=C(C)[C@@H](O)[C@H]5OC/C(=C\C=C\[C@@H]3C)[C@]54O)C[C@@H]2OC)O[C@@H](C)[C@@H]1O [ABAMECTIN]
Not Active: IC50 [1] | Ki [1] | IC50 [2] | IC50 [3] | Ki [3] | IC50 [4] | Ki [4] | IC50 [5] | IC50 [6]

C[C@@H]1O[C@@H](O[C@@H]2C=C3CC[C@@H]4[C@H](CC[C@]5(C)[C@@H](c6ccc(=O)oc6)CC[C@]45O)[C@@]3(C)CC2)[C@H](O)[C@H](O)[C@H]1O [PROSCILLARIDIN]
Not Active: IC50 [1] | Ki [1] | IC50 [2] | IC50 [3] | Ki [3] | IC50 [4] | Ki [4] | IC50 [5] | IC50 [6]

CN(C)[C@@H]1C(O)=C(C(N)=O)C(=O)[C@@]2(O)C(O)=C3C(=O)c4c(O)ccc(Cl)c4[C@@](C)(O)[C@H]3C[C@@H]12 [CHLORTETRACYCLINE]
Not Active: IC50 [1] | Ki [1] | IC50 [2] | IC50 [3] | Ki [3] | IC50 [4] | Ki [4] | IC50 [5] | IC50 [6]

Nc1ccn([C@@H]2O[C@H](CO)[C@@H](O)[C@@H]2O)c(=O)n1 [CYTARABINE]
Not Active: IC50 [1] | Ki [1] | IC50 [2] | IC50 [3] | Ki [3] | IC50 [4] | Ki [4] | IC50 [5] | IC50 [6]

NYSTATIN
Not Active: IC50 [1] | Ki [1] | IC50 [2] | Ki [2] | IC50 [3] | Ki [3] | IC50 [4] | Ki [4] | IC50 [5] | Ki [5] | IC50 [6] | Ki [6]

Cc1cc2c(OCC(CNC(C)(C)C)OC(=O)c3ccccc3)cccc2[nH]1 (stereo unspecified) [BOPINDOLOL]
Not Active: IC50 [1] | Ki [1] | IC50 [2] | IC50 [3] | Ki [3] | IC50 [4] | Ki [4] | IC50 [5] | IC50 [6]

CC(=O)Oc1ccc(C(c2ccc(OC(C)=O)cc2)c2ccccn2)cc1 [BISACODYL]
Not Active: IC50 [1] | Ki [1] | IC50 [2] | IC50 [3] | Ki [3] | IC50 [4] | Ki [4] | IC50 [5] | IC50 [6]

C[C@@H](CO)NC(=O)[C@@H]1C=C2c3cccc4[nH]cc(c34)C[C@H]2N(C)C1 [ERGONOVINE]
Not Active: IC50 [1] | Ki [1] | IC50 [2] | IC50 [3] | Ki [3] | IC50 [4] | Ki [4] | IC50 [5] | IC50 [6]

CC(=O)O[C@H]1C(=O)[C@@]2(C)[C@H]([C@H](OC(=O)c3ccccc3)[C@]3(O)C[C@H](OC(=O)[C@H](O)[C@@H](NC(=O)c4ccccc4)c4ccccc4)C(C)=C1C3(C)C)[C@]1(OC(C)=O)CO[C@@H]1C[C@@H]2O [PACLITAXEL]
5.69: pKi ([5]; read-out: Ki)
5.21: pIC50 ([5]; read-out: IC50)
Not Active: IC50 [1] | Ki [1] | IC50 [2] | IC50 [3] | Ki [3] | IC50 [4] | Ki [4] | IC50 [6]

Nc1ccn([C@@H]2O[C@H](CO)[C@@H](O)C2(F)F)c(=O)n1 [GEMCITABINE]
Not Active: IC50 [1] | Ki [1] | IC50 [2] | IC50 [3] | Ki [3] | IC50 [4] | Ki [4] | IC50 [5] | IC50 [6]

COc1cc(N)c(Cl)cc1C(=O)NC1CCN(CCCOc2ccc(F)cc2)CC1OC (stereo unspecified) [CISAPRIDE]
Not Active: IC50 [1] | Ki [1] | IC50 [2] | IC50 [3] | Ki [3] | IC50 [4] | Ki [4] | IC50 [5] | IC50 [6]

CCC1(CCC(C)C)C(=O)NC(=O)NC1=O [AMOBARBITAL]
Not Active: IC50 [1] | Ki [1] | IC50 [2] | IC50 [3] | Ki [3] | IC50 [4] | Ki [4] | IC50 [5] | IC50 [6]

O=C(O)c1cccnc1Nc1cccc(C(F)(F)F)c1 [NIFLUMIC ACID]
Not Active: IC50 [1] | Ki [1] | IC50 [2] | IC50 [3] | Ki [3] | IC50 [4] | Ki [4] | IC50 [5] | IC50 [6]

Cn1c(=O)c2[nH]cnc2n(C)c1=O.Cn1c(=O)c2[nH]cnc2n(C)c1=O.NCCN [AMINOPHYLLINE]
Not Active: IC50 [1] | Ki [1] | IC50 [2] | IC50 [3] | Ki [3] | IC50 [4] | Ki [4] | IC50 [5] | IC50 [6]

GENTAMICIN
Not Active: IC50 [1] | Ki [1] | IC50 [2] | Ki [2] | IC50 [3] | Ki [3] | IC50 [4] | Ki [4] | IC50 [5] | Ki [5] | IC50 [6] | Ki [6]

CCCNCC(O)COc1ccccc1C(=O)CCc1ccccc1 (stereo unspecified) [PROPAFENONE]
Not Active: IC50 [1] | Ki [1] | IC50 [2] | IC50 [3] | Ki [3] | IC50 [4] | Ki [4] | IC50 [5] | IC50 [6]

C=CCc1ccc(O)c(OC)c1 [EUGENOL]
Not Active: IC50 [1] | Ki [1] | IC50 [2] | IC50 [3] | Ki [3] | IC50 [4] | Ki [4] | IC50 [5] | IC50 [6]

COc1ccc2[nH]cc(CCNC(C)=O)c2c1 [MELATONIN]
Not Active: IC50 [1] | Ki [1] | IC50 [2] | IC50 [3] | Ki [3] | IC50 [4] | Ki [4] | IC50 [5] | IC50 [6]

N=C(N)NC(=O)Cc1c(Cl)cccc1Cl [GUANFACINE]
Not Active: IC50 [1] | Ki [1] | IC50 [2] | IC50 [3] | Ki [3] | IC50 [4] | Ki [4] | IC50 [5] | IC50 [6]

O=C(N/N=C/c1ccc([N+](=O)[O-])o1)c1cc([N+](=O)[O-])cc([N+](=O)[O-])c1O [NIFURSOL]
Not Active: IC50 [1] | Ki [1] | IC50 [2] | IC50 [3] | Ki [3] | IC50 [4] | Ki [4] | IC50 [5] | IC50 [6]

COc1cc2nc(N3CCN(C(=O)c4ccco4)CC3)nc(N)c2cc1OC [PRAZOSIN]
Not Active: IC50 [1] | Ki [1] | IC50 [2] | IC50 [3] | Ki [3] | IC50 [4] | Ki [4] | IC50 [5] | IC50 [6]
